In patent US20250255867A1 (Kadmon Corporation, LLC, priority 2022, published 2025):

Settings: Cohort 2 200 mg BID

CC(C)NC(=O)COc1cccc(-c2nc(Nc3ccc4[nH]ncc4c3)c3ccccc3n2)c1 [Belumosudil, 2-{3-[4-(1H-indazol-5-ylamino)-2-quinazolinyl]phenoxy}-N-(propan-2-yl) acetamide]
Conjunctivitis: Affected/At Risk (%): (6.25%)
Constipation: # Events: 1
Constipation: Affected/At Risk: 1/16
Constipation: Affected/At Risk (%): (6.25%)
Contrast media allergy: # Events: 2
Contrast media allergy: Affected/At Risk: 2/16
Contrast media allergy: Affected/At Risk (%): (12.5%)
Contusion: # Events: 2
Contusion: Affected/At Risk: 2/16
Contusion: Affected/At Risk (%): (12.5%)
Corneal abrasion: # Events: 0
Corneal abrasion: Affected/At Risk: 0/16
Corneal abrasion: Affected/At Risk (%): (0%)
Corneal infection: # Events: 2
Corneal infection: Affected/At Risk: 1/16
Corneal infection: Affected/At Risk (%): (6.25%)
Cough: # Events: 5
Cough: Affected/At Risk: 4/16
Cough: Affected/At Risk (%): (25%)
Decreased appetite: # Events: 2
Decreased appetite: Affected/At Risk: 2/16
Decreased appetite: Affected/At Risk (%): (12.5%)
Dehydration: # Events: 4
Dehydration: Affected/At Risk: 3/16
Dehydration: Affected/At Risk (%): (18.75%)
Depression: # Events: 4
Depression: Affected/At Risk: 4/16
Depression: Affected/At Risk (%): (25%)
Diarrhoea: # Events: 10
Diarrhoea: Affected/At Risk: 5/16
Diarrhoea: Affected/At Risk (%): (31.25%)
Dizziness: # Events: 4
Dizziness: Affected/At Risk: 1/16
Dizziness: Affected/At Risk (%): (6.25%)
Drug eruption: # Events: 1
Drug eruption: Affected/At Risk: 1/16
Drug eruption: Affected/At Risk (%): (6.25%)
Dry eye: # Events: 4
Dry eye: Affected/At Risk: 4/16
Dry eye: Affected/At Risk (%): (25%)
Dry skin: # Events: 0
Dry skin: Affected/At Risk: 0/16
Dry skin: Affected/At Risk (%): (0%)
Dyspepsia: # Events: 2
Dyspepsia: Affected/At Risk: 2/16
Dyspepsia: Affected/At Risk (%): (12.5%)
Dysphagia: # Events: 4
Dysphagia: Affected/At Risk: 3/16
Dysphagia: Affected/At Risk (%): (18.75%)
Dyspnoea exertional: # Events: 0
Dyspnoea exertional: Affected/At Risk: 0/16
Dyspnoea exertional: Affected/At Risk (%): (0%)
Dyspnoea: # Events: 7
Dyspnoea: Affected/At Risk: 5/16
Dyspnoea: Affected/At Risk (%): (31.25%)
Embolism: # Events: 0
Embolism: Affected/At Risk: 0/16
Embolism: Affected/At Risk (%): (0%)
Enamel anomaly: # Events: 1
Enamel anomaly: Affected/At Risk: 1/16
Enamel anomaly: Affected/At Risk (%): (6.25%)
Epidural lipomatosis: # Events: 0
Epidural lipomatosis: Affected/At Risk: 0/16
Epidural lipomatosis: Affected/At Risk (%): (0%)
Epstein-Barr virus infection: # Events: 0
Epstein-Barr virus infection: Affected/At Risk: 0/16
Epstein-Barr virus infection: Affected/At Risk (%): (0%)
Erectile dysfunction: # Events: 0
Erectile dysfunction: Affected/At Risk: 0/16
Erectile dysfunction: Affected/At Risk (%): (0%)
Eye irritation: # Events: 0
Eye irritation: Affected/At Risk: 0/16
Eye irritation: Affected/At Risk (%): (0%)
Eye pain: # Events: 4
Eye pain: Affected/At Risk: 2/16
Eye pain: Affected/At Risk (%): (12.5%)
Eye pruritus: # Events: 1
Eye pruritus: Affected/At Risk: 1/16
Eye pruritus: Affected/At Risk (%): (6.25%)
Fall: # Events: 1
Fall: Affected/At Risk: 1/16
Fall: Affected/At Risk (%): (6.25%)
Fatigue: # Events: 7
Fatigue: Affected/At Risk: 3/16
Fatigue: Affected/At Risk (%): (18.75%)
Flatulence: # Events: 2
Flatulence: Affected/At Risk: 1/16
Flatulence: Affected/At Risk (%): (6.25%)
Flushing: # Events: 1
Flushing: Affected/At Risk: 1/16
Flushing: Affected/At Risk (%): (6.25%)
Fungal infection: # Events: 0
Fungal infection: Affected/At Risk: 0/16
Fungal infection: Affected/At Risk (%): (0%)
Gamma-glutamyltransferase increased: # Events: 4
Gamma-glutamyltransferase increased: Affected/At Risk: 4/16
Gamma-glutamyltransferase increased: Affected/At Risk (%): (25%)
Gastric ulcer: # Events: 1
Gastric ulcer: Affected/At Risk: 1/16
Gastric ulcer: Affected/At Risk (%): (6.25%)
Gastrooesophageal reflux disease: # Events: 1
Gastrooesophageal reflux disease: Affected/At Risk: 1/16
Gastrooesophageal reflux disease: Affected/At Risk (%): (6.25%)
Generalised oedema: # Events: 0
Generalised oedema: Affected/At Risk: 0/16
Generalised oedema: Affected/At Risk (%): (0%)
Genital infection fungal: # Events: 1
Genital infection fungal: Affected/At Risk: 1/16
Genital infection fungal: Affected/At Risk (%): (6.25%)
Glaucoma: # Events: 1
Glaucoma: Affected/At Risk: 1/16
Glaucoma: Affected/At Risk (%): (6.25%)
Glucose urine present: # Events: 0
Glucose urine present: Affected/At Risk: 0/16
Glucose urine present: Affected/At Risk (%): (0%)
Graft versus host disease in gastrointestinal tract: # Events: 0
Graft versus host disease in gastrointestinal tract: Affected/At Risk: 0/16
Graft versus host disease in gastrointestinal tract: Affected/At Risk (%): (0%)
Gynaecomastia: # Events: 1
Gynaecomastia: Affected/At Risk: 1/16
Gynaecomastia: Affected/At Risk (%): (6.25%)
Haematuria: # Events: 1
Haematuria: Affected/At Risk: 1/16
Haematuria: Affected/At Risk (%): (6.25%)
Hair growth abnormal: # Events: 0
Hair growth abnormal: Affected/At Risk: 0/16
Hair growth abnormal: Affected/At Risk (%): (0%)
Headache: # Events: 3
Headache: Affected/At Risk: 3/16
Headache: Affected/At Risk (%): (18.75%)
Hodgkin's disease recurrent: # Events: 0
Hodgkin's disease recurrent: Affected/At Risk: 0/16
Hodgkin's disease recurrent: Affected/At Risk (%): (0%)
Hordeolum: # Events: 0
Hordeolum: Affected/At Risk: 0/16
Hordeolum: Affected/At Risk (%): (0%)
Hot flush: # Events: 0
Hot flush: Affected/At Risk: 0/16
Hot flush: Affected/At Risk (%): (0%)
Hyperglycemia: # Events: 0
Hyperglycemia: Affected/At Risk: 0/16
Hyperglycemia: Affected/At Risk (%): (0%)
Hyperhidrosis: # Events: 1
Hyperhidrosis: Affected/At Risk: 1/16
Hyperhidrosis: Affected/At Risk (%): (6.25%)
Hyperkalaemia: # Events: 2
Hyperkalaemia: Affected/At Risk: 2/16
Hyperkalaemia: Affected/At Risk (%): (12.5%)
Hypertension: # Events: 5
Hypertension: Affected/At Risk: 2/16
Hypertension: Affected/At Risk (%): (12.5%)
Hyperthyroidism: # Events: 1
Hyperthyroidism: Affected/At Risk: 1/16
Hyperthyroidism: Affected/At Risk (%): (6.25%)
Hypertriglyceridaemia: # Events: 1
Hypertriglyceridaemia: Affected/At Risk: 1/16
Hypertriglyceridaemia: Affected/At Risk (%): (6.25%)
Hyperuricaemia: # Events: 2
Hyperuricaemia: Affected/At Risk: 1/16
Hyperuricaemia: Affected/At Risk (%): (6.25%)
Hypoaesthesia: # Events: 0
Hypoaesthesia: Affected/At Risk: 0/16
Hypoaesthesia: Affected/At Risk (%): (0%)
Hypocalcaemia: # Events: 4
Hypocalcaemia: Affected/At Risk: 1/16
Hypocalcaemia: Affected/At Risk (%): (6.25%)
Hypogonadism: # Events: 0
Hypogonadism: Affected/At Risk: 0/16
Hypogonadism: Affected/At Risk (%): (0%)
Hypokalaemia: # Events: 3
Hypokalaemia: Affected/At Risk: 2/16
Hypokalaemia: Affected/At Risk (%): (12.5%)
Hypomagnesaemia: # Events: 1
Hypomagnesaemia: Affected/At Risk: 1/16
Hypomagnesaemia: Affected/At Risk (%): (6.25%)
Hyponatraemia: # Events: 0
Hyponatraemia: Affected/At Risk: 0/16
Hyponatraemia: Affected/At Risk (%): (0%)
Hypophosphataemia: # Events: 1
Hypophosphataemia: Affected/At Risk: 1/16
Hypophosphataemia: Affected/At Risk (%): (6.25%)
Hypothermia: # Events: 1
Hypothermia: Affected/At Risk: 1/16
Hypothermia: Affected/At Risk (%): (6.25%)
Hypothyroidism: # Events: 2
Hypothyroidism: Affected/At Risk: 1/16
Hypothyroidism: Affected/At Risk (%): (6.25%)
Hypoxia: # Events: 5
Hypoxia: Affected/At Risk: 2/16
Hypoxia: Affected/At Risk (%): (12.5%)
Impaired healing: # Events: 0
Impaired healing: Affected/At Risk: 0/16
Impaired healing: Affected/At Risk (%): (0%)
Influenza like illness: # Events: 2
Influenza like illness: Affected/At Risk: 1/16
Influenza like illness: Affected/At Risk (%): (6.25%)
Influenza: # Events: 2
Influenza: Affected/At Risk: 1/16
Influenza: Affected/At Risk (%): (6.25%)
Insomnia: # Events: 0
Insomnia: Affected/At Risk: 0/16
Insomnia: Affected/At Risk (%): (0%)
Irritability: # Events: 0
Irritability: Affected/At Risk: 0/16
Irritability: Affected/At Risk (%): (0%)
Joint range of motion decreased: # Events: 1
Joint range of motion decreased: Affected/At Risk: 1/16
Joint range of motion decreased: Affected/At Risk (%): (6.25%)
Lacrimation increased: # Events: 1
Lacrimation increased: Affected/At Risk: 1/16
Lacrimation increased: Affected/At Risk (%): (6.25%)
Leukaemia recurrent: # Events: 0
Leukaemia recurrent: Affected/At Risk: 0/16
Leukaemia recurrent: Affected/At Risk (%): (0%)
Leukocytosis: # Events: 0
Leukocytosis: Affected/At Risk: 0/16
Leukocytosis: Affected/At Risk (%): (0%)
Ligament sprain: # Events: 0
Ligament sprain: Affected/At Risk: 0/16
Ligament sprain: Affected/At Risk (%): (0%)
Limb injury: # Events: 0
Limb injury: Affected/At Risk: 0/16
Limb injury: Affected/At Risk (%): (0%)
Macular degeneration: # Events: 1
Macular degeneration: Affected/At Risk: 1/16
Macular degeneration: Affected/At Risk (%): (6.25%)
Migraine: # Events: 1
Migraine: Affected/At Risk: 1/16
Migraine: Affected/At Risk (%): (6.25%)
Muscle spasms: # Events: 0
Muscle spasms: Affected/At Risk: 0/16
Muscle spasms: Affected/At Risk (%): (0%)
Muscle spasticity: # Events: 0
Muscle spasticity: Affected/At Risk: 0/16
Muscle spasticity: Affected/At Risk (%): (0%)
Muscular weakness: # Events: 1
Muscular weakness: Affected/At Risk: 1/16
Muscular weakness: Affected/At Risk (%): (6.25%)
Musculoskeletal chest pain: # Events: 0
Musculoskeletal chest pain: Affected/At Risk: 0/16
Musculoskeletal chest pain: Affected/At Risk (%): (0%)
Myalgia: # Events: 1
Myalgia: Affected/At Risk: 1/16
Myalgia: Affected/At Risk (%): (6.25%)
Nail disorder: # Events: 0
Nail disorder: Affected/At Risk: 0/16
Nail disorder: Affected/At Risk (%): (0%)
Nausea: # Events: 6
Nausea: Affected/At Risk: 4/16
Nausea: Affected/At Risk (%): (25%)
Neck pain: # Events: 0
Neck pain: Affected/At Risk: 0/16
Neck pain: Affected/At Risk (%): (0%)
Nephrotic syndrome: # Events: 1
Nephrotic syndrome: Affected/At Risk: 1/16
Nephrotic syndrome: Affected/At Risk (%): (6.25%)
Neuropathy peripheral: # Events: 1
Neuropathy peripheral: Affected/At Risk: 1/16
Neuropathy peripheral: Affected/At Risk (%): (6.25%)
Neutrophil count decreased: # Events: 0
Neutrophil count decreased: Affected/At Risk: 0/16
Neutrophil count decreased: Affected/At Risk (%): (0%)
Nocturia: # Events: 0
Nocturia: Affected/At Risk: 0/16
Nocturia: Affected/At Risk (%): (0%)
Non-cardiac chest pain: # Events: 3
Non-cardiac chest pain: Affected/At Risk: 3/16
Non-cardiac chest pain: Affected/At Risk (%): (18.75%)
Obesity: # Events: 0
Obesity: Affected/At Risk: 0/16
Obesity: Affected/At Risk (%): (0%)
Oedema peripheral: # Events: 5
Oedema peripheral: Affected/At Risk: 4/16
Oedema peripheral: Affected/At Risk (%): (25%)
